Experiments:
[1] = system: arterial thrombosis induced by laser beam in the mesenteric microcirculation of the rat; assay: Laser-induced thrombosis in the mesenteric microcirculation; type: in vivo
Text: A/Principle of Laser-induced Thrombosis (Seiffge D. et al., 1989; Weichter W. et al., 1983).
In this model, lesion of the vascular wall is induced by a laser beam. This beam causes a limited lesion of the vascular endothelium (only 1 to 2 cells are destroyed). This laying bare of the sub-endothelium, which is a thrombogenetic surface, results in the adherence of platelets via […]. This adherence of platelets is followed by the activation thereof. They form pseudopods and secrete the content of their granules. This activation results in the appearance of glycoproteins IIb-IIIa which are necessary for the aggregation of the platelets between them. This lesion is induced in the mesenteric microcirculation of the rat. It is immediately followed by the formation of a thrombus (in a few seconds). This thrombus, which rapidly enlarges under the influence of the flow of blood, embolises before being formed again.
By this manes, the assessment of the effect of glycine betaine was conducted pharmacologically in conjunction with the study of two active molecules used as a reference; namely acetylsalicylic acid and heparin (of low molecular weight). The assessment also involved the activity of glycine betaine in relation to the prothrombotic effects induced by contrasting products.
Male Wistar rats were used for these tests. They weighed between 200 and 250 grams. After an 8-day stabilisation period, the rats were subjected to fasting for 12 hours. They were then anaesthetised, glycine betaine was administered subcutaneously, and the mesentery (laser) or vena cava (stasis) was opened at the end of the experiments.

coagulation factors [2] = assay: Biological balance (Quick time, ACT, fibrinogen, α2AP, AT III); type: in vivo, rat
[3] = system: venous thrombosis induced by stasis (lower vena cava ligature); assay: Stasis-induced venous thrombosis, clot weight; type: in vivo, rat
Method: B/Stasis-induced Thrombosis A laparotomy was performed to open the lower vena cava, on which a ligature was placed at T0, followed by subcutaneous injection of glycine betaine at T0+2 hours, followed by withdrawal of the clot and blood samples at T0+6 hours. Male Wistar rats were used for these tests. They weighed between 200 and 250 grams. After an 8-day stabilisation period, the rats were subjected to fasting for 12 hours. They were then anaesthetised, glycine betaine was administered subcutaneously, and the mesentery (laser) or vena cava (stasis) was opened at the end of the experiments.

coagulation factors [4] = assay: Plasminogenesis, coagulation and anti Xa in the stasis-induced thrombosis model; type: in vivo, rat
Method: A laparotomy was performed to open the lower vena cava, on which a ligature was placed at T0, followed by subcutaneous injection of glycine betaine at T0+2 hours, followed by withdrawal of the clot and blood samples at T0+6 hours.

[5] = system: intrinsic coagulation pathway; assay: Activated coagulation time (kaolin); type: in vivo, rat
Text: Activated Coagulation Time (Kaolin)
This test explores the intrinsic coagulation pathway. […] These tubes contain the kaolin activator. (Method HaemoTec., automated coagulation timer manufactured by MEDTRONIC HAEMOTEC Inc., Englewood, Colo., USA).

[6] = system: platelet aggregation induced with ADP; assay: Aggregation induced with ADP; type: in vivo, rat; conditions: ADP 5 μM
Method: (§1) The aggregation is made in accordance to the methods of Cardinal & Flower. Pharmacol. Method. 1980, and to American Journal of Clinical Pathology, 1989; 92: 676-679, Sureney. J D. Whole Blood aggregometry. After a keeping period of 8 days, the rats are subjected to a fasting for 12 hours. Betaine is subcutaneously injected one hour before blood sampling. The rats are then anaesthetised with sodium Thiopental administered at a dose of 200 mg/Kg and the blood samples are taken by intracardiac puncture on a trisodium citrate solution (1 volume of solution at 3.8% citrate for 9 volumes of blood).
• This example evaluated aggregation induced with ADP. • Final ADP concentration 5 μM

[7] = system: platelet aggregation induced with collagen; assay: Aggregation induced with collagen; type: in vivo, rat; conditions: collagen 10 μgr/ml
Method: as §1
• This example evaluates aggregation induced with collagen. • Collagen concentration 10 μgr/ml

[8] = system: induced haemorrhage in rats; assay: Anti-haemorrahgic activity with aspirin or heparin; type: in vivo, rat; conditions: glycine betaine 2-50 mg given with 100 mg aspirin or 2 mg heparin, versus aspirin or heparin alone
Method: This example tested anti-haemorrahgic activity using rats. Some rats received an active agent with haemorrahgic side effect, while other rats received said active agent together with a dose of betaine.
The following products were administered to rats for determining whether glycine betaine has an anti-haemorrahgic effect: • 100 mg aspirin per kg life body • 100 mg aspirin+50 mg glycine betaine per kg life body • 2 mg heparin • 2 mg heparin+50 mg glycine betaine • 2 mg heparin+10 mg glycine betaine • 2 mg heparin+2 mg glycine betaine

[9] = system: arterial thrombosis induced by laser beam in the mesenteric microcirculation of the rat; assay: Laser-induced thrombosis in the mesenteric microcirculation; type: in vivo; conditions: oral 50 mg/kg
[10] = rat, after laser firings, glycine betaine 5 mg/kg, acetylsalicylic acid 100 mg/kg, heparin 2 mg/kg
[11] = rat, glycine betaine 5 mg/kg, acetylsalicylic acid 100 mg/kg, heparin 2 mg/kg
[12] = 5 mg/ml/kg, Group I: injected 1 hour before
[13] = 5 mg/ml/kg, Group II: injected 2 hours before
[14] = 5 mg/ml/kg, Group III: injected 3 hours before
[15] = 5 mg/ml/kg, Group IV: injected 4 hours before
[16] = 24 hours after sub cutaneous 10 mg/kg
[17] = 24 hours after sub cutaneous administration, title 20 mg/kg, table line 10 mg/kg
[18] = 5 mg/kg/day, repeated administration on 5 days of treatment

Heparin
Duration of embolisation [1, 10]: 1 ± 0 min | Number of emboles or embolies [1, 10]: 2.67 ± 0.52 | ACT (Activated cephaline time) (coagulation factors [2]; [11]): 39.46 ± 1.36 s | AT III (Antithrombin III) (coagulation factors [2]; [11]): 77.66 ± 1.52% | Fibrinogen (coagulation factors [2]; [11]): 2.13 ± 0.25 g/L | QT (Quick time) (coagulation factors [2]; [11]): 29.50 ± 0.52 s | α2AP (Alpha,2-antiplasmin) (coagulation factors [2]; [11]): 29.4 ± 1.01%

C[N+](C)(C)CC(=O)O [Glycine betaine]
Duration of embolisation [1, 12]: 0.51 ± 0.5 min | Number of emboles [1, 12]: 1.8 ± 1.44 | Number of firings [1, 12]: 3.49 ± 1.07 | Duration of embolisation [1, 13]: 0.3 ± 0.23 min | Number of emboles [1, 13]: 1.4 ± 1.18 | Number of firings [1, 13]: 3.0 ± 1.5 | Duration of embolisation [1, 14]: 1.00 ± 0.5 min | Number of emboles [1, 14]: 1.99 ± 0.4 | Number of firings [1, 14]: 2.50 ± 1.25 | Duration of embolisation [1, 15]: 1.5 ± 0.6 min | Number of emboles [1, 15]: 2.2 ± 0.69 | Number of firings [1, 15]: 2.7 ± 1.0 | Embolisation time [1, 16]: 0 ± 0 min | Number of emboles [1, 16]: 1 +/− 0 | Number of laser firing [1, 16]: 3.33 +/− 0.57 | Embolisation time [1, 17]: 0 ± 0 min | Number of emboles [1, 17]: 0.66 +/− 0.57 | Number of laser firing [1, 17]: 3.33 +/− 0.57 | Embolisation time ([1]; oral 50 mg/kg, 1 hour): 0 ± 0 min | Number of laser firing ([1]; oral 50 mg/kg, 1 hour): 4 +/− 0 | Embolisation time ([1]; oral 50 mg/kg, 6 hours): 1 ± 0 min | Number of emboles ([1]; oral 50 mg/kg, 6 hours): 2.33 +/− 0.57 | Number of laser firing ([1]; oral 50 mg/kg, 6 hours): 3.66 +/− 0.57 | Embolisation time ([1]; oral 50 mg/kg, 24 hours): 1 ± 0 min | Number of emboles ([1]; oral 50 mg/kg, 24 hours): 2.33 +/− 0.57 | Number of laser firing ([1]; oral 50 mg/kg, 24 hours): 2.33 +/− 0.57 | Number of emboles ([1]; oral 50 mg/kg, 48 hours): 4.33 +/− 0.57 | Duration of embolisation [1, 10]: 1 ± 0 min | Number of emboles or embolies [1, 10]: 2 ± 0 | ACT (coagulation factors [2]; [18]): 39.3 ± 2.3 s | Fibrinogen (coagulation factors [2]; [18]): 2.2 ± 0.1 g/L | Quick time (coagulation factors [2]; [18]): 19.8 ± 1.2 s | ACT (Activated cephaline time) (coagulation factors [2]; [11]): 39.9 ± 1.05 s | AT III (Antithrombin III) (coagulation factors [2]; [11]): 89.5 ± 1.37% | Fibrinogen (coagulation factors [2]; [11]): 1.7 ± 0.1 g/L | QT (Quick time) (coagulation factors [2]; [11]): 16.9 ± 1.05 s | α2AP (Alpha,2-antiplasmin) (coagulation factors [2]; [11]): 29.7 ± 0.68% | Clot weight ([3]; 1 mg/kg s.c.): 3.1 ± 0.4 mg | Clot weight ([3]; 2.5 mg/kg s.c.): 1.63 ± 0.76 mg | Clot weight ([3]; 5 mg/kg s.c.): 0.76 ± 0.4 mg | ACT (coagulation factors [4]; 1 mg/kg): 29.1 ± 2.3 s | Anti Xa (coagulation factors [4]; 1 mg/kg): 0.08 ± 0.1 units/ml | Fibrinogen (coagulation factors [4]; 1 mg/kg): 2.63 ± 0.3 g/L | Plasminogenesis (coagulation factors [4]; 1 mg/kg): 2.44 ± 0.58% | Quick time (coagulation factors [4]; 1 mg/kg): 16.2 ± 1.2 s | ACT (coagulation factors [4]; 2.5 mg/kg): 31.2 ± 2.6 s | Anti Xa (coagulation factors [4]; 2.5 mg/kg): 0.14 ± 0.10 units/ml | Fibrinogen (coagulation factors [4]; 2.5 mg/kg): 2.2 ± 0.17 g/L | Plasminogenesis (coagulation factors [4]; 2.5 mg/kg): 2 ± 0.15% | Quick time (coagulation factors [4]; 2.5 mg/kg): 16.6 ± 0.7 s | ACT (coagulation factors [4]; 5 mg/kg): 33.5 ± 1.9 s | Anti Xa (coagulation factors [4]; 5 mg/kg): 0.35 ± 0.15 units/ml | Fibrinogen (coagulation factors [4]; 5 mg/kg): 2.32 ± 0.33 g/L | Plasminogenesis (coagulation factors [4]; 5 mg/kg): 1.66 ± 0.58% | Quick time (coagulation factors [4]; 5 mg/kg): 15.6 ± 0.4 s | Activated coagulation time ([5]; 10 mg/kg subcutaneous): 128 s | Activated coagulation time ([5]; 10 mg/kg subcutaneous, after 24 hours): 71 ± 3.51 s | Activated coagulation time ([5]; 20 mg/kg subcutaneous, after 24 hours): 154.66 ± 11.01 s | Activated coagulation time ([5]; 30 mg/kg subcutaneous): 179 s | Activated coagulation time ([5]; 50 mg/kg subcutaneous): 215 s | Activated coagulation time relative to control ([5]; 50 mg/kg subcutaneous): four times higher | Activated coagulation time ([5]; oral 50 mg/kg, 1 hour): 96 ± 11.27 s | Activated coagulation time ([5]; oral 50 mg/kg, 6 hours): 124.66 ± 9.29 s | Activated coagulation time ([5]; oral 50 mg/kg, 24 hours): 64.66 ± 7.37 s | Activated coagulation time ([5]; oral 50 mg/kg, 48 hours): 55.66 ± 7.02 s | Amplitude ([6]; 2.5 mg/kg): 13 +/− 0.82 ohms | Velocity ([6]; 2.5 mg/kg): 5.75 +/− 0.96 ohm/minute | Amplitude ([6]; 5 mg/kg): 7.25 +/− 0.96 ohms | Velocity ([6]; 5 mg/kg): 4.75 +/− 0.5 ohm/minute | Amplitude ([6]; 10 mg/kg): 0 +/− 0 ohms | Velocity ([6]; 10 mg/kg): 0 +/− 0 ohm/minute | Amplitude ([7]; 2.5 mg/kg): 13.75 +/− 0.96 ohms | Velocity ([7]; 2.5 mg/kg): 9.25 +/− 2.63 ohm/minute | Amplitude ([7]; 5 mg/kg): 5.5 +/− 1.29 ohms | Velocity ([7]; 5 mg/kg): 4.5 +/− 1 ohm/minute | Amplitude ([7]; 10 mg/kg): 1.5 +/− 1.29 ohms | Velocity ([7]; 10 mg/kg): 2 +/− 0.82 ohm/minute | Bleeding time after induced haemorrhage [8]: bleeding time was reduced | Number of emboles ([9]; 1 hour): 0 +/− 0 | Embolisation time ([9]; 48 hours): 2 ± 0 min | Number of laser firing ([9]; 48 hours): 2.33 +/− 0.57
